Data reported in US7101878B1 (Agouron Pharmaceuticals, Inc., priority 1998, dated 2006).

What follows are compounds tested against T1, human GnRH receptor (Homo sapiens, UniProt P30968) (assay: Radioligand binding, 125I-GnRH-A displacement, membranes of HEK 293 cells with human GnRH receptor). Settings: 1 h, substrate remaining; 10 uM compound; closer to zero = closer to 100% inhibition; read-out: S%R 10 uM hGnRHR.
T1 construct: expressed in transfected cells; host or cells: HEK 293 (hGnRH-R/293, from Dr. Stuart Sealfon)
T1 sequence (P30968 1-328): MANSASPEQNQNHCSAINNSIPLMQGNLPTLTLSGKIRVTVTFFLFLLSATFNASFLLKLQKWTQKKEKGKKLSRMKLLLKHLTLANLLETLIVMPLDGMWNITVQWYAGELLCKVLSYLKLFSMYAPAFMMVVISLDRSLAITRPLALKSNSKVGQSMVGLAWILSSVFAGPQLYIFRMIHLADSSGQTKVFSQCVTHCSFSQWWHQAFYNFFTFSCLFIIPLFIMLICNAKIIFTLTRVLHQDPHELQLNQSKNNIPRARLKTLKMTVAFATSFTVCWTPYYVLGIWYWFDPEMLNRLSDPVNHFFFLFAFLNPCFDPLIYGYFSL
In short: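 Bound tracer was separated by filtration through polyethyleneimine-soaked GF/C filters and counted by liquid scintillation. IC50 from curve fitting; other species were tested under the same conditions.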

SMILES | remaining activity at 10 µM [%]
Cc1cc2c(cc1Cc1ccc(C(=O)Nc3cccnc3)o1)C(C)(C)CCC2(C)C [Compound 320] | 9
CCN(CC)CCNC(=O)c1ccc(NC(=O)c2ccc(Cc3cc4c(cc3C)C(C)(C)CCC4(C)C)o2)cc1 [Compound 321] | 55
Cc1cc2c(cc1Cc1ccc(C(=O)Nc3cccc(CO)c3)o1)C(C)(C)CCC2(C)C [Compound 322] | 4
Cc1cc2c(cc1Cc1ccc(C(=O)Nc3ccc(CCO)cc3)o1)C(C)(C)CCC2(C)C [Compound 323] | 1

Same assay, conditions: binding assay conditions

SMILES | insolubility remark in hGnRH IC50 cell
Cc1cc2c(cc1Cc1ccc(C(=O)Nc3ccccc3)o1)C(C)(C)CCC2(C)C [Compound 195] | Insol. >3 uM
CCCc1nc(NC(=O)c2ccc(Cc3cc4c(cc3C)C(C)(C)CCC4(C)C)o2)ncc1C(=O)OCC [Compound 198] | Insol. >3 uM

Same assay, conditions: read-out: hGnRH IC50

SMILES | IC50 [nM]
Cc1cc2c(cc1Cc1ccc(C(=O)NCc3cccc(CNc4ncnc5scc(C)c45)c3)o1)C(C)(C)CCC2(C)C [Compound 142] | 3000
Cc1cc2c(cc1Cc1ccc(C(=O)NCc3cccc(CNc4nccc(C(F)(F)F)n4)c3)o1)C(C)(C)CCC2(C)C [Compound 143] | 1870
Cc1cc(NCc2cccc(CNC(=O)c3ccc(Cc4cc5c(cc4C)C(C)(C)CCC5(C)C)o3)c2)nc(N)n1 [Compound 144] | 230
Cc1cc2c(cc1Cc1ccc(C(=O)NCc3cccc(CNc4cc(Cl)nc(N)n4)c3)o1)C(C)(C)CCC2(C)C [Compound 145] | 200
COc1cccc(OC)c1NC(=O)c1ccc(Cc2cc3c(cc2C)C(C)(C)CCC3(C)C)s1 [Compound 146] | > 10000
Cc1cc2c(cc1Cc1ccc(C(=O)NCc3cccc(CNc4ncnc5c(C)csc45)c3)o1)C(C)(C)CCC2(C)C [Compound 149] | 360
Cc1cc2c(cc1Cc1ccc(C(=O)NC3CCC(Nc4nccc(NCC5CCCO5)n4)CC3)o1)C(C)(C)CCC2(C)C (centres unmarked) [Compound 152] | 700
Cc1cc2c(cc1Cc1ccc(C(=O)NCc3cccc(CNc4ncc(F)c(N)n4)c3)o1)C(C)(C)CCC2(C)C [Compound 157] | 620
COC(=O)c1cc(C)nc(NCc2cccc(CNC(=O)c3ccc(Cc4cc5c(cc4C)C(C)(C)CCC5(C)C)o3)c2)n1 [Compound 158] | 1090
COc1ccccc1NC(=O)c1ccc(Cc2cc3c(cc2C)C(C)(C)CCC3(C)C)o1 [Compound 160] | 390
CSc1ccccc1NC(=O)c1ccc(Cc2cc3c(cc2C)C(C)(C)CCC3(C)C)o1 [Compound 161] | 300
Cc1cc2c(cc1Cc1ccc(C(=O)NCC(=O)O)o1)C(C)(C)CCC2(C)C [Compound 162] | > 10000
Cc1ncc(CNC(=O)c2ccc(Cc3cc4c(cc3C)C(C)(C)CCC4(C)C)o2)c(N)n1 [Compound 163] | 1960
COC(=O)CNC(=O)c1ccc(Cc2cc3c(cc2C)C(C)(C)CCC3(C)C)o1 [Compound 164] | 1970
Cc1cc2c(cc1Cc1ccc(C(=O)NCc3ccc4c(c3)C(C)(C)CCC4(C)C)o1)C(C)(C)CCC2(C)C [Compound 165] | > 10000
Cc1cc2c(cc1Cc1ccc(C(=O)NCc3ccc(CN(C)C)cc3)o1)C(C)(C)CCC2(C)C [Compound 166] | 260
CNc1ccccc1NC(=O)c1ccc(Cc2cc3c(cc2C)C(C)(C)CCC3(C)C)o1 [Compound 167] | 7640
COc1cc(OC)c(NC(=O)c2ccc(Cc3cc4c(cc3C(C)C)C(C)(C)CCC4(C)C)o2)c(OC)c1 [Compound 171] | 1140
COc1cc(OC)c(CNC(=O)c2ccc(Cc3cc4c(cc3C)C(C)(C)CCC4(C)C)o2)c(OC)c1 [Compound 172] | 3200
COc1cc(OC)c([N+](=O)[O-])c(NC(=O)c2ccc(Cc3cc4c(cc3C)C(C)(C)CCC4(C)C)o2)c1[N+](=O)[O-] [Compound 173] | 2800
Cc1cc2c(cc1Cc1ccc(C(=O)NC3O[C@H](COC(=O)C(C)(C)C)[C@H](OC(=O)C(C)(C)C)[C@H](NC(=O)C(C)(C)C)[C@H]3OC(=O)C(C)(C)C)o1)C(C)(C)CCC2(C)C (some centres unmarked) [Compound 175] | > 10000

SMILES | IC50 [nM]
Cc1cc2c(cc1Cc1ccc(C(=O)NC[C@H]3CC[C@H](CNc4ccnc(NC[C@H]5CCCO5)n4)CC3)o1)C(C)(C)CCC2(C)C [Compound 178] | 185
COc1cc(NC(=O)c2ccc(Cc3cc4c(cc3C)C(C)(C)CCC4(C)C)o2)cc(OC)c1 [Compound 179] | 190
Cc1cc2c(cc1Cc1ccc(C(=O)NCc3cccc(CNc4ncnc5[nH]ccc45)c3)o1)C(C)(C)CCC2(C)C [Compound 180] | 350
COc1cc(OC)c(NC(=O)c2ccc(Cc3c(C)c(C)c4c(c3C)C=CC(C)(C)O4)o2)c(OC)c1 [Compound 184] | 560
COc1ccc(OC)c(Cc2ccc(C(=O)Nc3c(OC)cc(OC)cc3OC)o2)c1 [Compound 186] | 7310
COC(=O)N1CCC(C)(C)c2cc(OC)cc(Cc3ccc(C(=O)Nc4c(OC)cc(OC)cc4OC)o3)c21 [Compound 187] | 9000
Cc1cc2c(cc1Cc1ccc(C(=O)Nc3c(O)cccc3O)o1)C(C)(C)CCC2(C)C [Compound 189] | 940
COc1cc(OC)c(NC(=O)c2ccc(C(=O)c3cc4c(cc3C)C(C)(C)CCC4(C)C)o2)c(OC)c1 [Compound 190] | 420
Cc1cc(C)c2ccc(NC(=O)c3ccc(Cc4cc5c(cc4C)C(C)(C)CCC5(C)C)o3)nc2n1 [Compound 191] | 4240
CCOc1cccc(O)c1NC(=O)c1ccc(Cc2cc3c(cc2C)C(C)(C)CCC3(C)C)o1 [Compound 192] | 235
Cc1cc2c(cc1Cc1ccc(C(=O)Nc3c(O)cccc3OC(=O)c3ccc(Cc4cc5c(cc4C)C(C)(C)CCC5(C)C)o3)o1)C(C)(C)CCC2(C)C [Compound 193] | > 10000
Cc1cc2c(cc1Cc1ccc(C(=O)Nc3ccccc3)o1)C(C)(C)CCC2(C)C [Compound 195] | 320
COC(CNC(=O)c1ccc(Cc2cc3c(cc2C)C(C)(C)CCC3(C)C)o1)OC [Compound 196] | 760
COc1cc(OC)c(NC(=O)c2ccc(Cc3c(C)c(C)c(C)c(C)c3C)o2)c(OC)c1 [Compound 197] | 1040
CCCc1nc(NC(=O)c2ccc(Cc3cc4c(cc3C)C(C)(C)CCC4(C)C)o2)ncc1C(=O)OCC [Compound 198] | 780
CCOC(=O)N1CCC(C)(C)c2c(Cc3ccc(C(=O)Nc4c(OC)cc(OC)cc4OC)o3)c(OC)cc(OC)c21 [Compound 200.5] | 1230
COc1ccc(OC)c(Cc2ccc(C(=O)Nc3c(OC)cccc3OC)o2)c1 [Compound 202] | 1420
COc1cccc(OC)c1NC(=O)c1ccc(Cc2c(C)c(C)c(C)c(C)c2C)o1 [Compound 204] | 1270
Cc1cc2c(cc1Cc1ccc(C(=O)Nc3ncc([N+](=O)[O-])cn3)o1)C(C)(C)CCC2(C)C [Compound 205] | > 10000
COc1cc(OC)c(NC(=O)c2ccc(Cc3cc(OC)cc(OC)c3OC)o2)c(OC)c1 [Compound 208] | 8620
COc1cc(OC)c(NC(=O)c2ccc(Cc3c(OC)ccc(OC)c3OC)o2)c(OC)c1 [Compound 209] | 4380

SMILES | IC50 [nM]
COc1ccc(OC)c(OC)c1Cc1ccc(C(=O)Nc2c(OC)cccc2OC)o1 [Compound 211] | 1320
Cc1cc2c(cc1Cc1ccc(C(=O)N3CCN(CCN(Cc4ccccn4)C(=O)c4ccc(Cc5cc6c(cc5C)C(C)(C)CCC6(C)C)o4)CC3)o1)C(C)(C)CCC2(C)C [Compound 213] | > 10000
Cc1cc2c(cc1Cc1ccc(C(=O)N(CCCO)Cc3ccccn3)o1)C(C)(C)CCC2(C)C [Compound 214] | > 10000
Cc1cc2c(cc1Cc1ccc(C(=O)N(Cc3ccccn3)CC(C)C)o1)C(C)(C)CCC2(C)C [Compound 215] | 7800
CCOC(=O)CN(Cc1ccccn1)C(=O)c1ccc(Cc2cc3c(cc2C)C(C)(C)CCC3(C)C)o1 [Compound 216] | 4400
COc1cc(OC)c(NC(=O)c2cc(Cc3cc4c(cc3C)C(C)(C)CCC4(C)C)on2)c(OC)c1 [Compound 218] | 6460
COc1cc(OC)c(Cc2ccc(C(=O)Nc3c(OC)cc(OC)cc3OC)o2)c(OC)c1 [Compound 219] | 875
COc1cc(OC)c(Cc2ccc(C(=O)Nc3c(OC)cccc3OC)o2)c(OC)c1 [Compound 220] | 630
COc1cc(OC)c(NC(=O)c2ccc(Cc3c(OC)ccc4c3CCCC4=O)o2)c(OC)c1 [Compound 223] | 1660
COc1cc(OC)c(NC(=O)c2ccc(Cc3cc4c(cc3C)C(C)(C)CCC4(C)C)n2Cc2ccccc2)c(OC)c1 [Compound 224] | > 10000
COc1cc(OC)c(NC(=O)c2ccc(Cc3cc(OC)c(O)cc3OC)o2)c(OC)c1 [Compound 227] | > 10000
COc1cc(OC)c(NC(=O)c2ccc(Cc3cc(C(=O)C(C)(C)C)c(OC)cc3OC)o2)c(OC)c1 [Compound 229] | 250
COc1cc(OC)c(NC(=O)c2ccc(Cc3cc(C(C)=O)c(C)cc3C)o2)c(OC)c1 [Compound 230] | 580
COc1cc(C)c(Cl)c(C)c1Cc1ccc(C(=O)NCc2nc3ccccc3[nH]2)o1 [Compound 234] | > 10000
COc1cc(OC)c(OC)cc1Cc1ccc(C(=O)Nc2c(OC)cccc2OC)o1 [Compound 235] | 3720
Cc1cc(C)cc(NC(=O)c2ccc(Cc3cc4c(cc3C)C(C)(C)CCC4(C)C)o2)c1 [Compound 236] | 903
COc1cc(C)c(Cl)c(C)c1Cc1ccc(C(=O)NCc2cnc(C)cn2)o1 [Compound 237] | > 10000
CCN(CC)C(=O)c1ccc(Cc2cc3c(cc2C)C(C)(C)CCC3(C)C)o1 [Compound 238] | 7830
COc1cccc(OC)c1NC(=O)c1ccc(Cc2cc(C(C)C)c(O)cc2C)o1 [Compound 303] | 320
COc1cc(OC)c(NC(=O)c2ccc(Cc3cc(C4CCCCC4)ccc3C)o2)c(OC)c1 [Compound 304] | 303
